What all share (format): cell-based
In assay [1] the test system is MCF-7 cells. As to the kind of experiment: Confocal microscopy imaging of MCF-7 cells treated with complexes. The settings on record: 50 μM, 37° C., 1 h, excitation 405 nm. Here is the method: (§1) Experiments were conducted to show the working of the staining dye of the present invention. HeLa and MCF-7 cells were grown on sterile glass coverslips in a 60-mm tissue culture dish and incubated at 37° C. under a 5% CO2 atmosphere for 48 h. The culture medium was removed and replaced with medium/DMSO (99:1, v/v) containing the complex at a concentration of 50 μM. After incubation for 1 h, the coverslips were washed with PBS (5 mL×3), and then mounted onto slides for measurements. Imaging was performed using a confocal microscope (Leica TCS SPE) with an excitation wavelength at 405 nm. The emission was measured using a long-pass filter at 532 nm. FIG. 6 illustrates experimental results with fluorescence laser-scanning confocal microscopy images of HeLa cells treated with complexes (50 μM) at 37° C. for 1 h. FIG. 7 illustrates experimental results with fluorescence laser-scanning confocal microscopy images of MCF-7 cells treated with complexes (50 μM) at 37° C. for 1 h.

The next assay concerns HeLa cells. The assay can be described thus: Confocal microscopy imaging of HeLa cells treated with complexes. The settings on record: 50 μM, 37° C., 1 h, excitation 405 nm. Here is the method: as §1
In assay [2] the test system is MCF-7 cells. As to the kind of experiment: Co-staining with CellMask deep red plasma membrane stain. The settings on record: complex 50 μM 1 h, CellMask deep red plasma membrane stain 0.25 μL/ml 5 min. The method, then: Further experiments were conducted to co-stain cells with the complex [Ir(ppyCH2NH—C10)2(bpy-tris)]Cl and the CellMask™ deep red plasma membrane stain. […] Please see FIG. 8 showing fluorescence laser-scanning confocal microscopy images of MCF-7 cells treated with the bpy-tris complex (50 μM, 1 h) and the CellMask™ deep red plasma membrane stain (0.25 μL/ml, 5 min).

Regarding `Cc1ccnc(-c2cc(C(=O)O)ccn2)c1` [bpy-COOH], the “cellular staining pattern (membrane staining / localization)” value in the assay on MCF-7 cells [1] and in the assay on HeLa cells was “much better membrane staining” each time.

As for [Ir(ppyCH2NH—C10)2(bpy-tris)]Cl, the “cellular staining pattern (membrane staining / localization)” value with MCF-7 cells [1] and in the assay with HeLa cells was “much better membrane staining” in each case. In the assay with MCF-7 cells [2], the colocalization coefficient amounted to 92.9%.

Values taken from patent US9441003B2, “Membrane staining dyes containing phosphorescent transition metal polypyridine complexes” (City University of Hong Kong, priority 2014, dated 2016).
